Test results: patent US10881107B2, “Antimicrobial compositions containing alkylpyrazines and their uses” (ROOMBIOTIC GMBH, priority 2015, dated 2021)

assay: antimicrobial activity test of alkyl pyrazine compounds or mixtures; assay type: cell-based
Excerpt: Several alkyl pyrazine compounds or mixtures thereof have been tested for their antimicrobial activity.

For Cc1cnc(C)c(C)n1 [2,3,5-Trimethylpyrazine, reference compound], which Antimicrobial activity is on record?
The Antimicrobial activity was “No”.

For Cc1nccnc1C [2,3-Dimethylpyrazine, reference compound], which Antimicrobial activity is on record?
The Antimicrobial activity was “Yes”.

And the “Degree of antimicrobiai activity” value?
Its value is “Weak”.

For Cc1cnc(C)cn1 [2,5-Dimethylpyrazine, reference compound], which Antimicrobial activity is on record?
Its Antimicrobial activity is “Yes”.

What about the “Degree of antimicrobiai activity” value of the same compound?
The value was “Weak”.

For CC(=O)c1cnccn1 [2-Acetylpyrazine, reference compound], which Antimicrobial activity is on record?
Its Antimicrobial activity is “No”.

What does the source list for COc1nccnc1CC(C)C [2-Isobutyl-3-methoxypyrazine]?
Antimicrobial activity: Yes; Degree of antimicrobiai activity: Strong

What does the source list for Cc1nccnc1CC(C)C [2-Isobutyl-3-methylpyrazine]?
Antimicrobial activity: Yes; Degree of antimicrobiai activity: Strong

What does the source list for CC(C)Cc1cnccn1 [2-Isobutylpyrazine]?
Antimicrobial activity: Yes; Degree of antimicrobiai activity: Strong

Which results are given for CC(C)c1cnccn1 [2-Isopropylpyrazine]?
Antimicrobial activity: Yes; Degree of antimicrobiai activity: Strong

Which Antimicrobial activity does the source give for Cc1nc(C(C)C)c(C(C)C)nc1C(C)C [TS-73] here?
Its Antimicrobial activity is “No”.
